Reference: patent US20050043180A1, “Optically active herbicidal (r)-phenoxypropionic acid-n-methyl-n-2-fluorophenyl amides” (priority 2001, published 2005)

Tests used:
[1] = test system: Barnyard grass (ECHCG, Echinochloa crus-galli Beauv. var. caudata Kitagawa); experiment: Leaf treatment test, herbicidal activity on barnyard grass; type: in vivo
Experimental: (§1) Experimental Example 1: Leaf Treatment Test
Seeds of rice, wheat, barley, corn, cotton, barnyard grass, common sorgum, large crabgrass and fall panicum were seeded at a pot with a surface area of 600 cm^2. […], wettable powder prepared by mixing 1 part by weight of the active compound, 5 parts by weight of acetone and 1 part by weight of emulsifier and diluted with water was applied directly to the leaves in 2000 L per hectare. The concentration of the spray liquid was so chosen the particular amounts of the active compound desired. 14 days after the treatment, the degree of damage to the plants was rated in % damage in comparison to the development of untreated control.

[2] = test system: Rice (ORYSA, Oryza sativa L. cv. Dongjin); experiment: Leaf treatment test, damage to rice; type: in vivo
Experimental: as §1
Seeds of rice, wheat, barley, corn, cotton, barnyard grass, common sorgum, large crabgrass and fall panicum were seeded at a pot with a surface area of 600 cm^2. When barnyard grass grown in a green house kept at 20-30° C. had three leaves, wettable powder prepared by mixing 1 part by weight of the active compound, 5 parts by weight of acetone and 1 part by weight of emulsifier and diluted with water was applied directly to the leaves in 2000 L per hectare. The concentration of the spray liquid was so chosen the particular amounts of the active compound desired. 14 days after the treatment, the degree of damage to the plants was rated in % damage in comparison to the development of untreated control.

[3] = leaf treatment 2 g/ha, 14 days after treatment
[4] = leaf treatment 4 g/ha, 14 days after treatment
[5] = leaf treatment 8 g/ha, 14 days after treatment
[6] = leaf treatment 16 g/ha, 14 days after treatment
[7] = leaf treatment 32 g/ha, 14 days after treatment
[8] = leaf treatment 63 g/ha, 14 days after treatment
[9] = leaf treatment 125 g/ha, 14 days after treatment
[10] = leaf treatment 250 g/ha, 14 days after treatment
[11] = leaf treatment 500 g/ha, 14 days after treatment
[12] = leaf treatment 1000 g/ha, 14 days after treatment
[13] = leaf treatment 2000 g/ha, 14 days after treatment
[14] = leaf treatment 4000 g/ha, rated 14 days after treatment vs untreated control, 0% no effect, 100% total destruction

| SMILES | % damage, Barnyard grass (4 leaves) [1, 3] [%] | % damage, Barnyard grass (4 leaves) [1, 4] [%] | % damage, Barnyard grass (4 leaves) [1, 5] [%] | % damage, Barnyard grass (4 leaves) [1, 6] [%] | % damage, Barnyard grass (4 leaves) [1, 7] [%] | % damage, Barnyard grass (4 leaves) [1, 8] [%] | % damage, Barnyard grass (4 leaves) [1, 9] [%] | % damage, Barnyard grass (4 leaves) [1, 10] [%] | % damage, Barnyard grass (4 leaves) [1, 11] [%] | % damage, Barnyard grass (4 leaves) [1, 12] [%] | % damage, Barnyard grass (4 leaves) [1, 13] [%] | % damage, Barnyard grass (4 leaves) [1, 14] [%] | % damage, Rice (4 leaves) [2, 3] [%] | % damage, Rice (4 leaves) [2, 4] [%] | % damage, Rice (4 leaves) [2, 5] [%] | % damage, Rice (4 leaves) [2, 6] [%] | % damage, Rice (4 leaves) [2, 7] [%] | % damage, Rice (4 leaves) [2, 8] [%] | % damage, Rice (4 leaves) [2, 9] [%] | % damage, Rice (4 leaves) [2, 10] [%] | other results |
| --- | --- | --- | --- | --- | --- | --- | --- | --- | --- | --- | --- | --- | --- | --- | --- | --- | --- | --- | --- | --- | --- |
| CC(Oc1ccc(Oc2nc3ccc(Cl)cc3o2)cc1)C(=O)N(C)c1ccccc1F (racemic) [R,S-racemic compound] | 0.0 | 2.5 | 45.0 | 100 | 100 | 100 | 100 | 100 | 100 | 100 | 100 | 100 | 0.0 | 0.0 | 0.0 | 0.0 | 0.0 | 0.0 | 0.0 | 0.0 | % damage, Rice (4 leaves) [2, 11]: 0.0%; % damage, Rice (4 leaves) [2, 12]: 0.0%; % damage, Rice (4 leaves) [2, 13]: 0.0%; % damage, Rice (4 leaves) [2, 14]: 3.8% |
| C[C@@H](Oc1ccc(Oc2nc3ccc(Cl)cc3o2)cc1)C(=O)N(C)c1ccccc1F [(R)-compound, (R)-2-[4-(6-chloro-2-benzoxazolyloxy)-phenoxy]propionic acid-N-(2-fluorophenyl)-N-methyl amide] | 6.3 | 62.5 | 98.8 | 100 | 100 | 100 | 100 | 100 | 100 | 100 | 100 | 100 | 0.0 | 0.0 | 0.0 | 0.0 | 0.0 | 0.0 | 0.0 | 0.0 | % damage, Rice (4 leaves) [2, 11]: 0.0%; % damage, Rice (4 leaves) [2, 12]: 2.5%; % damage, Rice (4 leaves) [2, 13]: 11.3%; % damage, Rice (4 leaves) [2, 14]: 22.5% |
| C[C@H](Oc1ccc(Oc2nc3ccc(Cl)cc3o2)cc1)C(=O)N(C)c1ccccc1F [(S)-compound] | 0.0 | 0.0 | 7.5 | 65.0 | 92.5 | 100 | 100 | 100 | 100 | 100 | 100 | 100 | 0.0 | 0.0 | 0.0 | 0.0 | 0.0 | 0.0 | 0.0 | 0.0 | % damage, Rice (4 leaves) [2, 11]: 0.0%; % damage, Rice (4 leaves) [2, 12]: 0.0%; % damage, Rice (4 leaves) [2, 13]: 0.0%; % damage, Rice (4 leaves) [2, 14]: 0.0% |
